Assay results reported in ChEMBL document CHEMBL1201862, “PubChem BioAssay data set” (2004).
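Method: 48-hour compound exposure of cells in 96-well plates, five concentrations, linear interpolation of endpoints. The concentration for 50% growth inhibition is given as GI50.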 The source made the active and inactive calls. No stated cut-off is given here; in the data, active = GI50 up to about 1.1 µM and inactive = higher.

Key:
Assay in all cases: inhibition of tumour cell growth, NCI panel, 48 h
SK-MEL-28 = test system: SK-MEL-28
SNB-75 = test system: SNB-75
SK-MEL-5 = test system: SK-MEL-5
MCF7 = test system: MCF7
Hs-578T = test system: Hs-578T
SR = test system: SR
M14 = test system: M14
SN12C = test system: SN12C
MOLT-4 = test system: MOLT-4
HL-60 = test system: HL-60
NCI-H23 = test system: NCI-H23
SNB-19 = test system: SNB-19
HT-29 = test system: HT-29
K562 = test system: K562
NCI-H522 = test system: NCI-H522
NCI/ADR-RES = test system: NCI/ADR-RES
PC-3 = test system: PC-3
SK-OV-3 = test system: SK-OV-3
OVCAR-8 = test system: OVCAR-8
HCC 2998 = test system: HCC 2998

Row | SMILES | GI50 (SK-MEL-28) | GI50 (SNB-75) | GI50 (SK-MEL-5) | GI50 (MCF7) | GI50 (Hs-578T) | GI50 (SR) | GI50 (M14) | GI50 (SN12C) | GI50 (MOLT-4) | GI50 (HL-60) | GI50 (NCI-H23) | GI50 (SNB-19) | GI50 (HT-29) | GI50 (K562) | GI50 (NCI-H522) | GI50 (NCI/ADR-RES) | GI50 (PC-3) | GI50 (SK-OV-3) | GI50 (OVCAR-8) | GI50 (HCC 2998)
1 | O=C1c2cccc([N+](=O)[O-])c2C(=O)N1c1ncn[nH]1 | > 100 µM (inactive) | 23.6 µM (inactive) | > 100 µM (inactive) | > 100 µM (inactive) | 36.4 µM (inactive) | > 100 µM (inactive) | > 100 µM (inactive) | > 100 µM (inactive) | > 100 µM (inactive) | > 100 µM (inactive) | > 100 µM (inactive) | 29.7 µM (inactive) | > 100 µM (inactive) | > 100 µM (inactive) | > 100 µM (inactive) | > 100 µM (inactive) | > 100 µM (inactive) | 32.7 µM (inactive) | 79.3 µM (inactive) | 
2 | CCc1ccc2c(c1)/C(=C1/Nc3ccccc3C1=O)C(=O)N2 | 96.6 µM (inactive) | 22.3 µM (inactive) | 9.62 µM (inactive) | 1.78 µM (inactive) | 11 µM (inactive) | 14.1 µM (inactive) | 26.7 µM (inactive) | 68.2 µM (inactive) | 19.2 µM (inactive) |  | 29.6 µM (inactive) | 11 µM (inactive) | 25.4 µM (inactive) | 22.3 µM (inactive) | 19.5 µM (inactive) | 28.7 µM (inactive) | 14.5 µM (inactive) | 10.3 µM (inactive) | 7.46 µM (inactive) | 15.7 µM (inactive)
3 | COC1(C2c3ccccc3CCN2C(=O)OC(C)(C)C)C(=O)C(c2ccccc2)=C1N(C)C (stereo unspecified) | 62.4 µM (inactive) | 43.6 µM (inactive) | 20.7 µM (inactive) | 44.8 µM (inactive) | 32.7 µM (inactive) | 79.3 µM (inactive) | 27.3 µM (inactive) | 17.1 µM (inactive) | 43.3 µM (inactive) | 19.7 µM (inactive) | 23.3 µM (inactive) | 27.5 µM (inactive) | 18.1 µM (inactive) |  | 21.2 µM (inactive) | 21.1 µM (inactive) | 25.2 µM (inactive) | 37.9 µM (inactive) | 68.7 µM (inactive) | 
4 | Cc1cc2nc(N3C(=O)/C(=C/c4ccc(N(C)C)cc4)N=C3c3ccccc3)sc2cc1C | 51.9 µM (inactive) | 22.9 µM (inactive) | 15.2 µM (inactive) | 0.515 µM (active) | 30.3 µM (inactive) | 6.05 µM (inactive) | 26.7 µM (inactive) | 18.7 µM (inactive) | 1.14 µM (inactive) | 16.9 µM (inactive) |  | 54.6 µM (inactive) | 18.5 µM (inactive) | 25.9 µM (inactive) |  | 28.6 µM (inactive) | 15.9 µM (inactive) | > 100 µM (inactive) | 32.3 µM (inactive) | 18.9 µM (inactive)
5 | O=[N+]([O-])C(=C(N1CCOCC1)N1CCOCC1)/C(Cl)=C(\Cl)[N+](=O)[O-] | 14.3 µM (inactive) | 19.4 µM (inactive) | 1.66 µM (inactive) | 2.67 µM (inactive) | 1.18 µM (inactive) | 8.77 µM (inactive) | 6.35 µM (inactive) | 2.01 µM (inactive) | 17.2 µM (inactive) |  | 3.33 µM (inactive) | 25.8 µM (inactive) | 4.1 µM (inactive) | 3.69 µM (inactive) | 1.48 µM (inactive) | 21.4 µM (inactive) | 16.4 µM (inactive) | 52.7 µM (inactive) |  | 20.4 µM (inactive)
6 | CCOC(=O)c1c(N2CCOCC2)[nH]c(=O)c(C(c2ccc(Cl)c([N+](=O)[O-])c2)c2c(O)c(C(=O)OCC)c(N3CCOCC3)[nH]c2=O)c1O | 42.6 µM (inactive) | 48.1 µM (inactive) | 24.3 µM (inactive) | 22 µM (inactive) | > 100 µM (inactive) | 36.1 µM (inactive) | 20.7 µM (inactive) | 20.5 µM (inactive) | 25.2 µM (inactive) |  | 25.8 µM (inactive) | 26.5 µM (inactive) | 20.9 µM (inactive) | 30.3 µM (inactive) | 28 µM (inactive) | 39 µM (inactive) | 14.2 µM (inactive) | > 100 µM (inactive) | 18.4 µM (inactive) | > 100 µM (inactive)
